Data: ChEMBL document CHEMBL1130359, “In vivo immunosuppressive activity of some cyclolignans” (Bioorg Med Chem Lett, 1997)
Values after ≈ are worked out from the molar mass of the structure shown.

What was measured:
[1] = Tested in vitro for cytotoxicity against […](LcV) in cells; format: functional
Mus musculus [2] = organism: Mus musculus; assay: Tested for immunosuppressive activity in mouse using allogenic MLR method; format: functional, organism-based
[3] = Non-cytotoxic IMS activity (ratio LcV/MLR) was determined; format: functional
Mus musculus [4] = assay: Tested in vivo for immunosuppressive activity in mouse using graft vs Host rejection technique(GVHR); weight change at a dose of 0.15 mg/kg on day 5; format: functional
Mus musculus [5] = assay: Tested in vivo for immunosuppressive activity in mouse using allogenic skin grafting technique(SG); graft survival relative to cyclophosphamide at a dose of 1.5 mg/kg; format: functional
Mus musculus [6] = assay: Tested in vivo for immunosuppressive activity in mouse using graft vs Host rejection technique(GVHR); spleen weight normalized to D8 body weight at a dose of 1.5 mg/kg; format: functional
Mus musculus [7] = assay: Tested in vivo for immunosuppressive activity in mouse using graft vs Host rejection technique(GVHR); weight at a dose of 15 mg/kg; format: functional
Mus musculus [8] = assay: Tested in vivo for immunosuppressive activity in mouse using allogenic skin grafting technique(SG); mean graft survival at a dose of 15 mg/kg; format: functional
Mus musculus [9] = assay: Tested in vivo for immunosuppressive activity in mouse using allogenic skin grafting technique(SG); graft survival relative to cyclophosphamide at a dose of 0.15 mg/kg; format: functional
Mus musculus [10] = assay: Tested in vivo for immunosuppressive activity in mouse using allogenic skin grafting technique(SG); mean graft survival at a dose of 1.5 mg/kg; format: functional
Mus musculus [11] = assay: Tested in vivo for immunosuppressive activity in mouse using graft vs Host rejection technique(GVHR); spleen index at a dose of 1.5 mg/kg; format: functional
Mus musculus [12] = assay: Tested in vivo for immunosuppressive activity in mouse using allogenic skin grafting technique(SG); mean graft survival at a dose of 0.15 mg/kg; format: functional
Mus musculus [13] = assay: Tested in vivo for immunosuppressive activity in mouse using graft vs Host rejection technique(GVHR); % suppression at a dose of 15.0 mg/kg; format: functional
Mus musculus [14] = assay: Tested in vivo for immunosuppressive activity in mouse using graft vs Host rejection technique(GVHR); weight change at a dose of 1.5 mg/kg on day 5; format: functional
Mus musculus [15] = assay: Tested in vivo for immunosuppressive activity in mouse using allogenic skin grafting technique(SG); weight lost at a dose of 1.5 mg/kg on day 5; format: functional
Mus musculus [16] = assay: Tested in vivo for immunosuppressive activity in mouse using graft vs Host rejection technique(GVHR); body weight at a dose of 1.5 mg/kg; format: functional
Mus musculus [17] = assay: Tested in vivo for immunosuppressive activity in mouse using graft vs Host rejection technique(GVHR); body weight at a dose of 15.0 mg/kg; format: functional
Mus musculus [18] = assay: Tested in vivo for immunosuppressive activity in mouse using graft vs Host rejection technique(GVHR); body weight at a dose of 0.15 mg/kg; format: functional
Mus musculus [19] = assay: Tested in vivo for immunosuppressive activity in mouse using graft vs Host rejection technique(GVHR); spleen index at a dose of 0.15 mg/kg; format: functional
Mus musculus [20] = assay: Tested in vivo for immunosuppressive activity in mouse using allogenic skin grafting technique(SG); weight lost at a dose of 0.15 mg/kg; format: functional
Mus musculus [21] = assay: Tested in vivo for immunosuppressive activity in mouse using graft vs Host rejection technique(GVHR); weight change at a dose of 15.0 mg/kg on day 5; format: functional
Mus musculus [22] = assay: Tested in vivo for immunosuppressive activity in mouse using graft vs Host rejection technique(GVHR); spleen weight normalized to D8 body weight at a dose of 0.15 mg/kg; format: functional
Mus musculus [23] = assay: Tested in vivo for immunosuppressive activity in mouse using allogenic skin grafting technique(SG); weight at a dose of 0.15 mg/kg; format: functional
Mus musculus [24] = assay: Tested in vivo for immunosuppressive activity in mouse using graft vs Host rejection technique(GVHR); spleen index at a dose of 15.0 mg/kg; format: functional
Mus musculus [25] = assay: Tested in vivo for immunosuppressive activity in mouse using graft vs Host rejection technique(GVHR);% suppression at a dose of 1.5 mg/kg; format: functional
Mus musculus [26] = assay: Tested in vivo for immunosuppressive activity in mouse using graft vs Host rejection technique(GVHR); spleen weight normalized to D8 body weight at a dose of 15.0 mg/kg; format: functional
Mus musculus [27] = assay: Tested in vivo for immunosuppressive activity in mouse using allogenic skin grafting technique(SG); weight at a dose of 1.5 mg/kg; format: functional

In the case of `COc1cc([C@@H]2c3cc(OC(C)=O)c(OC(C)=O)cc3[C@@H](OC(C)=O)[C@H]3COC(=O)[C@H]23)cc(OC)c1OC`, the Cytotoxicity [1] is reported as greater than 28.5 µg/mL, the IC50 (Mus musculus [2]) is reported as 0.427 µg/mL (≈ 0.808 µM) and the Ratio [3] is reported as greater than 67.
Compound `COc1cc([C@@H]2c3cc4c(cc3C3=NOC[C@H]3[C@@H]2C(=O)O)OCO4)cc(OC)c1OC` has a Weight change (Mus musculus [4]) of 3.1%, a graft survival (Mus musculus [5]) of 0.69 days and a Spleen weight (Mus musculus [6]) of 4.35 g. It also gave a Body weight (Mus musculus [7]) of 17.8 g, a Mean graft survival (Mus musculus [8]) of 0.9 days and a graft survival (Mus musculus [9]) of 1.14 days. It also gave a Mean graft survival (Mus musculus [10]) of 6.8 days, an SI (Mus musculus [11]) of 0.87 and a Mean graft survival (Mus musculus [12]) of 11.2 days. It also gave an Activity (Mus musculus [13]) of 148%, a Weight change (Mus musculus [14]) of 0% and a Body weight (Mus musculus [15]) of 1.7 g. For the same compound, the Body weight (Mus musculus [16]) was 16 g, the Body weight (Mus musculus [17]) was 16.5 g and the Body weight (Mus musculus [18]) was 15.8 g. The SI (Mus musculus [19]) was 1.14, the Cytotoxicity [1] was greater than 30 µg/mL and the Body weight (Mus musculus [20]) was 0.5 g. It also gave a Weight change (Mus musculus [21]) of 1.8%, a Spleen weight (Mus musculus [22]) of 5.7 g and a Body weight (Mus musculus [23]) of 19 g. It also gave an SI (Mus musculus [24]) of 1.27, an IC50 (Mus musculus [2]) of less than 0.009 µg/mL and an Activity (Mus musculus [25]) of 48%. For the same compound, the Spleen weight (Mus musculus [26]) was 6.34 g, the Body weight (Mus musculus [27]) was 18.7 g and the Ratio [3] was greater than 3333.
`COc1cc([C@@H]2c3cc(O)c(O)cc3C[C@H]3COC(=O)[C@@H]32)cc(OC)c1OC` gave a Cytotoxicity [1] greater than 25 µg/mL, an IC50 (Mus musculus [2]) of 0.585 µg/mL (≈ 1.51 µM) and a Ratio [3] greater than 43.
In the case of `COc1cc([C@H]2C3=C(COC3=O)Cc3cc4c(cc32)OCO4)cc(OC)c1OC`, the Cytotoxicity [1] is reported as greater than 28.5 µg/mL, the IC50 (Mus musculus [2]) is reported as less than 0.00855 µg/mL and the Ratio [3] is reported as greater than 3333.
Compound `COc1cc([C@@H]2c3cc4c(cc3[C@H](O)[C@H]3COC(=O)[C@H]23)OCO4)cc(OC)c1OC` [PODOFILOX] has a Cytotoxicity [1] of 280 µg/mL, an IC50 (Mus musculus [2]) of less than 0.128 µg/mL and a Ratio [3] greater than 2187.
